From patent US20120196057A1 (priority 2008, published 2012)
Entries after “also recorded” stand apart in the source; their conditions may differ.

What was measured:
[1] = ingestion of 250 μg/day as a dietary supplement; cited from earlier work
[2] = Clinical trial: plasma 25-OH D after single oral bolus of 25-OH D3, Vitamin D3 or both; format: in vivo, human; conditions: single oral bolus 140 μg (combo 140 μg + 140 μg)
Excerpt: Each group included five subjects. They are followed for four months in Zurich, Switzerland during the winter.
Equal quantities of both substances were investigated. […] As the maximum pre-existing baseline concentration of 25-OH D will be 50 nmol/L, it is not anticipated that subjects will approach the range where disturbance in Ca^2+ homeostasis has been observed.
Each dosage is consumed orally at breakfast. The duration of the study is four months for the “Daily” and “Weekly” groups. Subjects enrolled in the “Bolus” group consume orally a single dosage at the second study visit and are further followed-up for four months.

gastrocnemius muscle = experiment: Gene chip analysis in hindlimb unloading (tail suspension) skeletal muscle atrophy model; format: in vivo, BalbC mice; conditions: for Differentially expressed probe sets for genes between HU and HU + treatment group: 50 μg/kg/bw (combo 50+50) by gavage twice, 7 days hindlimb unloading, Affymetrix Mouse 430-2; for Expression of Myosin, light chain kinase (Mylk) / Expression of Tropomyosin 1 (Tpm1) / Expression of Titin (Tnt) / Expression of Myomesin 1 (Myom 1) / Number of differentially expressed probe sets also differentially expressed in 25-OH D3+Vitamin D3 group / Share of differentially expressed probe sets also differentially expressed in 25-OH D3+Vitamin D3 group: gastrocnemius muscle; for Expression of Myosin, light chain kinase (Mylk): HU control 749; for Expression of Tropomyosin 1 (Tpm1): HU control 1179; for Expression of Titin (Tnt): HU control 11353; for Expression of Myomesin 1 (Myom 1): HU control 84697; for Differentially expressed muscle genes compared to HU: selected skeletal muscle genes, list wrapped over table lines; for Number of differentially expressed probe sets also differentially expressed in 25-OH D3+Vitamin D3 group / Share of differentially expressed probe sets also differentially expressed in 25-OH D3+Vitamin D3 group: vs HU control
Excerpt: Initially this model was established in rats for simulating spaceflight in humans and is commonly used in other scientific fields to study the loss of skeletal muscle mass or bone. The results are considered indicative of human conditions such as sarcopenia (degenerative loss of skeletal muscle mass and strength during the process of ageing) or immobilization of skeletal muscle (e.g. after prolonged bed rest due to fractures, surgery or trauma). Methods For our study, nine month old BalbC female mice were randomized at the beginning of the study into four groups with 10 animals per group • 1. […] The animals were placed in special cages for duration of seven days; all mice were housed separately and had free access to feed and water ad libidum. All animals were treated twice by gavage at the beginning of the experiment and 3 hours before the section: 1. the control group received vehicle (gelatine) […] At the end of the study the gastrocnemius muscle was taken out and directly frozen in liquid nitrogen for further analysis. […] Total RNA was isolated using the commonly used Trizol protocol. The RNA was quantified by using spectrophotometric analysis. The integrity of total RNA samples was also assessed qualitatively on an Agilent 2100 Bioanalyzer. RNA was then prepared for the one cycle cDNA synthesis. A poly-A RNA control is used for this step to provide exogenous positive controls to monitor the entire eukaryotic target labelling process. The first cDNA synthesis is done, and after the second strand cDNA synthesis the cDNA is cleaned up of double-stranded cDNA. A biotin labelled cRNA is then synthesised, cleaned up and quantified using a spectrophotometer at 260/280 nm. It is important that cRNA target is fragmented before hybridization onto a GeneChip probe arrays to obtain optimal assay sensitivity. After fragmentation the probes are hybridized on the chips (Affymetrix Mouse 430-2 chips). The chips are washed and stained in the fluidics station of Affymetrix and scanned in the gene chip scanner. The data is then transferred from the scanner for further analysis using software from Genedata (Expressionist 5.0: […] Analyst). Data interpretation and pathway analysis was done with the online version of the GeneGo Metacore package ([…] evaluates microarray data for quality issues and flags problematic measurements. It provides a set of normalization algorithms and validated condensing methods to automatically pre-process and summarize raw microarray data for subsequent statistical analysis.

Row | Compound | Blood concentration of 25-hydroxyvitamin D resulting from ingestion [1] | Time period with increase in plasma 25-OH D levels by at least 30 nmol/L [2] | Differentially expressed probe sets for genes between HU and HU + treatment group (gastrocnemius muscle) | Expression of Myosin, light chain kinase (Mylk) (gastrocnemius muscle) | Expression of Tropomyosin 1 (Tpm1) (gastrocnemius muscle) | Expression of Titin (Tnt) (gastrocnemius muscle) | Expression of Myomesin 1 (Myom 1) (gastrocnemius muscle) | Differentially expressed muscle genes compared to HU (gastrocnemius muscle) | Number of differentially expressed probe sets also differentially expressed in 25-OH D3+Vitamin D3 group (gastrocnemius muscle) | Share of differentially expressed probe sets also differentially expressed in 25-OH D3+Vitamin D3 group (gastrocnemius muscle) [%]
1 | Vitamin D | about 200 nmol/L | no increase of that magnitude | – | – | – | – | – | – | – | –
2 | C=C1CC[C@H](O)C/C1=C/C=C1\CCC[C@]2(C)[C@@H]([C@H](C)CCCC(C)(C)O)CC[C@@H]12 [25-OH D3, 25-hydroxyvitamin D3] | – | 4 to 49 h | 1263 | 994 | 2110 | 13786 | 105393 | alkali, smooth muscle and non-muscle; myosin, light; also recorded: polypeptide kinase; myotubularin related protein 2;; also recorded: myotubularin related protein 4; myotubularin related; also recorded: protein 6; tropomyosin 2, beta; X-linked myotubular; also recorded: myopathy gene 1; also recorded: Desmin; dystonin; myocyte enhancer factor 2A;; also recorded: myoneurin; myosin VIIb; myosin, light polypeptide 6, | 769 | ~61
3 | C=C1CC[C@H](O)C/C1=C/C=C1\CCC[C@]2(C)[C@@H]([C@H](C)CCCC(C)C)CC[C@@H]12 [Vitamin D3, cholecalciferol] | – | – | 385 | 786 | 2199 | 11354 | 99099 | Desmin; myoneurin; tropomyosin 1, alpha; tropomyosin 2,; also recorded: beta; X-linked myotubular myopathy gene 1 | 177 | ~46
